Values quoted from earlier work in patent US6506434B1, “Process for coating N-[N-(3,3-dimethylbutyl)-L-α-aspartyl]-L-phenylalanine 1-methyl ester onto a carrier” (The NutraSweet Company, priority 1999, dated 2003).

Conditions: relative to sugar; stated as known

For `COC(=O)[C@H](Cc1ccccc1)NC(=O)[C@H](CC(=O)O)NCCC(C)(C)C` [neotame, N-[N-(3,3-dimethylbutyl)-L-α-aspartyl]-phenylalanine 1-methyl ester], the “sweetening potency (sweeter than sugar)” value is listed as “about 8000 ×”.
